Measurements published in US11136291B2, “Antifungal compounds and uses thereof” (Dana-Farber Cancer Institute, Inc., priority 2016, dated 2021).
Converted amounts (≈) assume the structure as drawn. “Also recorded” adds a separate entry of the source.

What was measured:
[1] = system: Gal11/Med15 recruitment to Pdr1-regulated target genes; test: Chromatin immunoprecipitation (ChIP) assay; type: cell-based, Saccharomyces cerevisiae
Description: (§1) ChIP was performed according to standard procedures (see. e.g., McConnell A D, Gelbart M E, Tsukiyama T. Histone fold protein Dls1p is required for Isw2-dependent chromatin remodeling in vivo. Mol Cell Biol. 2004; 24(7):2605-13. PMCID: 371119). Briefly, cells were grown to saturation then washed 2 times with sterilized Milli-Q (Millipore) water, resuspended to an OD600 of 0.8 in YP (1% yeast extract, 2% bacto peptone) and then grown for 6 hours at 30° C. with shaking in the presence of DMSO (vehicle) or iKIX1. Cultures were induced with ketoconazole to a final concentration of 40 μM and harvested at the times indicated. 2 mL of culture was harvested at 0′ and 15′ for matched transcription samples; RNA was prepared as described below. Cells were fixed with 1% formaldehyde (final) for 15 minutes with swirling and then quenched with 125 mM glycine (final) for 5 min. with swirling. Cells were pelleted, washed with TBS+125 mM glycine and then TBS. Cells were lysed in buffer containing 50 mM HEPES, pH 7.5, 140 mM NaCl, 1% Triton X-100, 0.1% sodium deoxycholate, 1 mM EDTA and protease inhibitors and 0.5 mm glass beads. Glass beads were removed by centrifugation before cell lysate was sonicated to obtain 150 to 400 base pair fragments. […]

HepG2 cells = test: HepG2 cell viability (CellTiter-Glo); type: cell-based, Human; conditions: 72 hours
Description: HepG2 (ATCC HB-8065) cell viability was assessed using the CellTiter-Glo assay kit (Promega). HepG2 cells (N=4,500) were seeded in each well in 100 μL MEM+10% FBS in 96-well CellBIND (Corning) plates. After 24 hours, iKIX1 was added to final concentrations indicated for a final volume of 150 μL. HepG2 cells were incubated with iKIX1 for another 72 hours before CellTiter-Glo signal was assessed with an Envision 2103 Multilabel plate reader according to the manufacturer's instructions.

Candida glabrata DSY562 = test: Broth dilution MIC; conditions: Nakaseomyces glabratus
Description: (§2) Antifungal susceptibility testing was carried out using broth dilution assays which examined effects of two-fold dilutions of compounds on cellular growth. The minimum inhibitory concentration (MIC) was defined as the drug concentration at which the optical density was equal to or decreased more than 50% from that of the drug-free culture.

Candida albicans DSY2621 = test: Broth dilution MIC
Description: as §2

[2] = system: ScPdr1 target genes (ScPDR5, ScSNQ2); test: Transcription assay, quantitative real-time PCR of ScPdr1 target genes; type: cell-based, Saccharomyces cerevisiae; conditions: ketoconazole induced
Description: as §1, with “beads.” for “beads. Glass beads were removed by centrifugation before cell lysate was sonicated to obtain 150 to 400 base pair fragments.”
For harvest and preparation of RNA. cells equivalent to an OD600 of 0.4 were centrifuged at 4,000 rpm for 4 minutes and then resuspended in 700 μL Trizol. […] Quantitative real-time PCR reactions were run and analyzed on a Roche LightCycler 480 system. […]

Candida krusei DSY471 = test: Broth dilution MIC; conditions: Pichia kudriavzevii, ATCC6258
Description: as §2

[3] = system: Candida tropicalis DSY472; test: Broth dilution MIC; conditions: ATCC75
Description: as §2

SREBP-target genes = test: Transcription of SREBP-target genes in HepG2 cells; type: cell-based, Human; conditions: concentrations up to 100 μM, 24 hours
Description: For transcription assays, HepG2 cells were seeded in MEM+10% FBS on 12-well poly-D-lysine-coated plates at a concentration of 175,000 cells per mL. After cells attached (4 hours), media was aspirated and iKIX1 was added in fresh MEM+10% FBS to final concentrations indicated. Cells were treated with iKIX1 for 24 hours before RNA was isolated using Trizol according to manufacturer's instructions. Quantitative real-time RT-PCR was carried out as described above.

[4] = system: PDRE-dependent luciferase gene transcription; type: cell-based, Saccharomyces cerevisiae; conditions: 40 μM ketoconazole
Candida albicans SC5314 = test: Broth dilution MIC
Description: as §2

[5] = system: Candida parapsilosis DSY473; test: Broth dilution MIC; conditions: ATCC22019
Description: as §2

[6] = system: C. glabrata PDR1 wild-type or PDR1^L280F strains; test: Galleria mellonella survival assay; type: in vivo

N#CCC(=O)NNC(=S)Nc1ccc(Cl)c(Cl)c1 [iKIX1, 2-(2-Cyanoacetyl)-N-(3,4-dichlorophenyl)hydrazinecarbothioamide]
constitutive occupancy of Pdr1 at Pdr1-regulated target genes ([1]; 20 μM iKIX1): did not impede the constitutive occupancy of Pdr1
ketoconazole-induced recruitment of Gal11/Med15 to promoters of PDR5 and SNQ2 ([1]; iKIX1 pre-treatment): ketoconazole-induced recruitment of Gal11/Med15 was abrogated
concentrations that inhibit viability of HepG2 cells (HepG2 cells): > 50 µM
IC50 (HepG2 cells; Homo sapiens, HepG2, read-out: IC50, toxicity in HepG2 cells): ~100 µM
MIC (Candida glabrata DSY562): 12.5 µM (≈ 3.79 µg/mL)
MIC (Candida albicans DSY2621): 12.5 µM (≈ 3.79 µg/mL)
azole-induced transcription of ScPdr1 target genes [2]: strongly inhibited azole-induced transcription of ScPdr1 target genes
MIC (Candida krusei DSY471): 6.25 µM (≈ 1.89 µg/mL)
MIC [3]: 6.25 µM (≈ 1.89 µg/mL)
effect on transcription of SREBP-target genes (SREBP-target genes): no effect
ketoconazole-induced luciferase activity (in words) [4]: able to block this induction in a concentration-dependent manner; also recorded: inhibits ketoconazole (KET)-induced upregulation of luciferase activity in a dose-responsive manner
MIC (Candida albicans SC5314): 12.5 µM (≈ 3.79 µg/mL)
MIC [5]: 25 µM (≈ 7.58 µg/mL)
survival of G. mellonella larvae ([6]; […], fluconazole-iKIX1 combination): no significant alterations in survival
survival of G. mellonella larvae ([6]; […], single agent (fluconazole 50 mg/kg or iKIX1 25 mg/kg) vs vehicle): did not significantly increase survival
survival of G. mellonella larvae ([6]; in vivo): significantly increased survival
